Reference: US8278072B1, “Method for synthesis of sialylated products using reversible sialylation” (Health Research, Inc., priority 2007, dated 2012)

Target: T1, ST3Gal-II (Rattus norvegicus, UniProt Q11205)
T1 construct: purchased Calbiochem
T1 sequence (Q11205 1-350): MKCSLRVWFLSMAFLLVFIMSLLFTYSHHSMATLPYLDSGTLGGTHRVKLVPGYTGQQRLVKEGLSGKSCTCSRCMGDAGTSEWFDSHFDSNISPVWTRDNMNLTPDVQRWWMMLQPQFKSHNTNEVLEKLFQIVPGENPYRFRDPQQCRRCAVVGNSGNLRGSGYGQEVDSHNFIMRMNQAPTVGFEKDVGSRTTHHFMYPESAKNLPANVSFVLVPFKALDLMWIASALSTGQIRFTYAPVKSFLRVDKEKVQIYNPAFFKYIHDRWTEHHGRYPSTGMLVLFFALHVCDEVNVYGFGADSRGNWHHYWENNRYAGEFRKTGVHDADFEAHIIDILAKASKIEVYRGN
Assay: Reverse sialylation equilibrium constant (Keq) and 5′-CMP dose dependence
Format: biochemical
Conditions: donor 0.15 mM [2], 0.15 mU ST3Gal-II, 2 hours; read-out: concentration of 5′-CMP that mediated half-maximal transfer of [9-3H]NeuAc
Description: FIG. 2. Equilibrium constant. a. Reversible sialyltransferase activity at increasing concentration of 5′-CMP. 0.15 mM of donor [9-^3H]NeuAcα2,3Galβ1,3(4-FGlcNAcβ1,6)GalNAcα-O-Bn [9-^3H[2]] was incubated with varying concentrations of 5′-CMP and 0.15 mU ST3Gal-II under conditions described in FIG. 1 for 2 hours. The consumption of the [9-^3H]NeuAc benzyl glycoside donor was measured by subjecting the incubation mixture to Sep-Pak C18 fractionation, which binds the donor and not CMP-[9-^3H]NeuAc. The reaction proceeded to ½ the maximum extent at 80 μM 5′-CMP. b. Equilibrium constant Keq (=0.35) calculated for data in panel a. c. Varying concentrations of 5′-CMP was sialylated with ST3Gal-II (2.0 mU) using either 0.15 mM (panel c) or 1.5 mM (not shown) sialyl donor [9-^3H]NeuAcα2,3Galβ1,3GalNAcβ1,3Galα-O-Me [9-^3H[3]] for 4 hours. The product CMP-[9-^3H]NeuAc and the unused [9-^3H[3]] were separated and quantitated by Dowex-1-Formate method. d. Equilibrium constant, Keq=98.9. Diamonds denote data from 1.5 mM runs while data from 0.15 mM runs are depicted by squares.
a) Biogel P2 chromatography: A Biogel P2 column (Fine Mesh; 1.0×116.0 cm) was used with 0.1 M pyridine acetate (pH5.4) as the eluent at room temperature. […] Fractions of 1.0 ml were collected. The bound material was then eluted with 0.5M GlcNAc or 0.2M Gal in the same buffer. […] Calculation of equilibrium constant, Keq: Equilibrium constant was calculated for selected reversible bimolecular reactions that are denoted by:
[formula] Here, [9-^3H]D* denotes the radiolabeled donor and D′ is the donor after removal of sialic acid. Similarly, A and [9-^3H]A* denote the acceptor before and after incorporation of NeuAc. In each run, unreacted [9-^3H]D* and product [9-^3H] A* are measured using radioactivity measurements. The equilibrium constant (Keq=kreverse/kforward, dimensionless units) are then determined using the following equation, where terms in square brackets denote concentrations:
[formula] [D0] and [A0] are initial donor and acceptor concentrations. A plot of [D*]/([D0]−[D*]) versus [A*]/([A0]−[A*]) yields Keq from slope data. Keq<1 implies that the forward reaction is favored and the reaction proceeds to the right side to form [9-^3H]A* efficiently. Liquid Chromatography Coupled with Tandem Mass Spectrometry (LC/MS/MS)
Similar results were observed upon increasing concentrations of 5′-CMP when [9-^3H]NeuAcα2,3Galβ1,3(4-FGlcNAcβ1,6) GalNAcα-O-Bn [9-^3H[2]] was donor (FIG. 2a, b). The concentration of 5′-CMP that mediated half-maximal transfer of [9-^3H]NeuAc was 80 μM. The bimolecular equilibrium constant (Keq) for this reaction was 0.35 (dimensionless units, Table I). Indeed, the Keq varied depending on the donor and it was 98.9 when the donor was based on the globo glycolipid, [9-^3H]NeuAcα2,3Galβ1,3GalNAcβ1,3 Gala-O-Me [[9-^3H] [3]] (FIG. 2c, d). Upon comparing and [3], it is apparent that reverse sialylation proceeds more effectively in the case of [2]. To further confirm the above estimates of Keq for core-2 based structures, we also calculated this parameter for our previously published data where [9-^3H]CMP-NeuAc was donor and mucin core-2 tetrasaccharide Galβ1,4GlcNAcβ1,6(Galβ1,3)GalNAcα-O-Bn was acceptor. In this case, Keq measured with respect to the rate of mucin core-2 sialylation was 5.55 (data not shown), which translates to a reverse sialylation Keq of 0.18.

EC50: 80 µM
Structure (SMILES): Nc1ccn([C@@H]2O[C@H](COP(=O)(O)O)[C@@H](O)[C@H]2O)c(=O)n1 [5′-CMP, Cytidine 5′-monophosphate]
